Reference: ChEMBL document CHEMBL1150663, “Pachastrissamine, a cytotoxic anhydrophytosphingosine from a marine sponge, Pachastrissa sp” (J Nat Prod, 2002)

Columns and labels:
Type in all cases: functional, cell-based
HT-29 = assay: Cytotoxicity against human HT-29 cells after 3 days; conditions: HT-29, 72 h
SK-MEL-28 = assay: Cytotoxicity against human SK-MEL-28 cells after 3 days; conditions: SK-MEL-28, 72 h
A549 = assay: Cytotoxicity against human A549 cells after 3 days; conditions: A549, 72 h
P388 = assay: Cytotoxicity against mouse P388 cells after 3 days; conditions: P388, 72 h

Measured: IC50

CCCCCCCCCCCCCC[C@@H]1OC[C@H](N)[C@@H]1O [PACHASTRISSAMINE]
0.01 µg/mL: HT-29 | SK-MEL-28 | A549 | P388
